# Patent US9249140B2, “Bicyclic heteroaromatic compounds” (MERCK PATENT GMBH, priority 2011, dated 2016)
# How the values were obtained:
# Type in all cases: biochemical
# [1] = molecular target: T1, PDK1 (Homo sapiens, UniProt O15530); assay: Test for the inhibition of PDK1, 384-well flashplate; settings: enzymatic; 4 μM ATP
# T1 construct: the PDK1 sample His6-PDK1(Δ1-50)(3.4 nM)
# T1 sequence (O15530 51-556): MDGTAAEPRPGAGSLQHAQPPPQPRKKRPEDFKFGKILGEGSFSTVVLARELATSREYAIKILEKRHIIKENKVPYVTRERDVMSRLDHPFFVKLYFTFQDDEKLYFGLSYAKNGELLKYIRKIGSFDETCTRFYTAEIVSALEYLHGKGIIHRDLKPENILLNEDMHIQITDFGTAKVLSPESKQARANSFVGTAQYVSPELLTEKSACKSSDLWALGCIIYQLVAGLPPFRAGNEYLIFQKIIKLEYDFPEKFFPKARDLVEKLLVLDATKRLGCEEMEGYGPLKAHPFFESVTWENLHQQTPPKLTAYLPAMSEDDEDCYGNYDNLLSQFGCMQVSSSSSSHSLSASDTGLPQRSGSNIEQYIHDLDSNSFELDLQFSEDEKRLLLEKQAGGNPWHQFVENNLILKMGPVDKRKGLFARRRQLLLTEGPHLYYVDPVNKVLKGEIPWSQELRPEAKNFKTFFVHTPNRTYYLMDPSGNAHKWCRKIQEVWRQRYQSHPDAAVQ
# Description: The experimental batches are carried out in a flashplate system with 384 wells/microtitration plate.
# In each case, the PDK1 sample His6-PDK1(Δ1-50)(3.4 nM) (“His6” disclosed as SEQ ID NO: 4), the PDK1 substrate biotin-bA-bA-[…] (SEQ ID NO: 1) (400 nM), 4 μM ATP (with 0.2 μCi of 33P-ATP/well) and the test substance in 50 μl of conventional experimental solution per well are incubated at 30° C. for 60 min. The test substances are employed in corresponding concentrations (if desired in a dilution series). The control is carried out without test substance. The reaction is stopped using standard methods and washed. The activity of the kinase is measured via the incorporated radioactivity in top count. In order to determine the non-specific kinase reaction (blank value), the experimental batches are carried out in the presence of 100 nM staurosporine.
# The radioactivity (decompositions per minute) of the blank value (no use of test substance in the presence of staurosporine) is subtracted from all other radioactivity values. The controls (kinase activity without test substance) are set equal to 100 percent and all other radioactivity values (after subtracting the blank value) are expressed set in relation thereto (for example in % of the control).
# [2] = molecular target: T2, TANK binding kinase (TBK1) (Homo sapiens, UniProt Q9UHD2); assay: TBK1 kinase test, 384-well flashplate; settings: enzymatic; 10 μM ATP
# T2 sequence (Q9UHD2 1-729): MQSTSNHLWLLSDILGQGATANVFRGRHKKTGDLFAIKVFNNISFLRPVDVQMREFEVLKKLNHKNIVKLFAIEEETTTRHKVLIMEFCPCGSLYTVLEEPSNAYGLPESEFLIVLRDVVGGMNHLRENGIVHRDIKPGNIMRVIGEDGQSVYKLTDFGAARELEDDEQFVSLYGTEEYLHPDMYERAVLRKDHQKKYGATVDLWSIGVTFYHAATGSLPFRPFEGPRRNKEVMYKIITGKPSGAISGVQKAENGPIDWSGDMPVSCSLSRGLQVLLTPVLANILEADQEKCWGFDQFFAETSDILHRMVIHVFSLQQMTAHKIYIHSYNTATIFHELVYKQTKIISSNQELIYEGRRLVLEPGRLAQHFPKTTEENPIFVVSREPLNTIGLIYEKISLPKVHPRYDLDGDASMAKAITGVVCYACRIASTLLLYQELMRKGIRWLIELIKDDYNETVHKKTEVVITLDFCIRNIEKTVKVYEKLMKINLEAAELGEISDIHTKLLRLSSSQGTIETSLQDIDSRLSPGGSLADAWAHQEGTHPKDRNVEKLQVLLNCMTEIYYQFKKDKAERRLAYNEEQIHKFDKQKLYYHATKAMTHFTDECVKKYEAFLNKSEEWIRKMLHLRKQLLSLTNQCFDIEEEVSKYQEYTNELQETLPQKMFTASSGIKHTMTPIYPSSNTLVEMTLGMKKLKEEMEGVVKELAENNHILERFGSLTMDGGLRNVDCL
# Description: The kinase assay is performed as 384-well flashplate assay. 0.6 nM TANK binding kinase (TBK1), 800 nM biotinylated MELK-derived peptide (biotin-Ah-Ah-[…] (SEQ ID NO: 3)) and 10 μM ATP (with 0.25 μCi of 33P-ATP/well) are incubated in a total volume of 50 μl (10 mM MOPS, 10 mM magnesium acetate, 0.1 mM EGTA, 1 mM DTT, 0.02% of Brij35, 0.1% of BSA, pH 7.5) with or without test substance at 30° C. for 120 min. The reaction is stopped using 25 μl of 200 mM EDTA solution, filtered off with suction after 30 min at room temperature, and the wells are washed 3 times with 100 μl of 0.9% NaCl solution. The non-specific proportion of the kinase reaction (blank) is determined using 100 nM staurosporine. Radioactivity is measured in the Topcount. IC50 values are calculated using RS1.
# [3] = molecular target: T3, FAK (Homo sapiens, UniProt Q05397); assay: FAK kinase assay (autophosphorylation), 384-well flashplate; settings: enzymatic; 1 μM ATP; read-out: IC50 (enzymatic), FAK inhibition
# T3 construct: 2 nM FAK, 400 nM biotinylated substrate
# T3 sequence (Q05397 whole entry): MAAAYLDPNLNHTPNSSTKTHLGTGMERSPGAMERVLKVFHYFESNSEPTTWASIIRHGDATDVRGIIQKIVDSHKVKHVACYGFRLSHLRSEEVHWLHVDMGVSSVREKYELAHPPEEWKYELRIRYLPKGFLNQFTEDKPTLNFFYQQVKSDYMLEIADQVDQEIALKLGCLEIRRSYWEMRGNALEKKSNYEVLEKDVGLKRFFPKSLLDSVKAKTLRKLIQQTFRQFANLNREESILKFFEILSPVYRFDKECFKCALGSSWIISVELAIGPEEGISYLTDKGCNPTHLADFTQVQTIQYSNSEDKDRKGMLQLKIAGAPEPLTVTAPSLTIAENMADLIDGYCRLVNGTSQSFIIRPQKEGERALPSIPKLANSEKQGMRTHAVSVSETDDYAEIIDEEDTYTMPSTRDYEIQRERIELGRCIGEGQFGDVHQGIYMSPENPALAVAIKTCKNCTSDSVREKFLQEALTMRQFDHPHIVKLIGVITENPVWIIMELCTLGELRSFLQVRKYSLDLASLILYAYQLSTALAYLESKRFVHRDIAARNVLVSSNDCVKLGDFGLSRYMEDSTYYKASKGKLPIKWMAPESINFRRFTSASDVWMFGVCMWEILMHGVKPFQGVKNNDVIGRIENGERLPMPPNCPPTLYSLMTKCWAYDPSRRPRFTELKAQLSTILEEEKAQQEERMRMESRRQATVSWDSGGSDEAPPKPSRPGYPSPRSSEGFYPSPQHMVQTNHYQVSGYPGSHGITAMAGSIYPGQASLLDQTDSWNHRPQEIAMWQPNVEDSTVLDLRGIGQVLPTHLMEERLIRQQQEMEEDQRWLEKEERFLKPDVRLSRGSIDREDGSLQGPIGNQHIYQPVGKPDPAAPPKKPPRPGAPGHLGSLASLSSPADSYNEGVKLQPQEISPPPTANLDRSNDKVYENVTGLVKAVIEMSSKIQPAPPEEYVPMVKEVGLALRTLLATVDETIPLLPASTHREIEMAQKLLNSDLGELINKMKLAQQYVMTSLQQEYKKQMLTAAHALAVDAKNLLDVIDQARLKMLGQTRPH
# Description: The focal adhesion kinase (FAK) assay is carried out either as a 384-well flashplate assay (for example for Topcount measurements) or as a 384-well image flashplate assay (for LEADseeker measurements). […] The reaction is stopped using 25 μl of 200 mM EDTA. After 30 min at 30° C., the liquid is removed, and each well is washed three times with 100 μl of 0.9% sodium chloride solution. Non-specific reaction is determined in the presence of 1 μM EMD 1076893/0(PF-562271). The radioactivity is measured using Topcount (in the case of the use of flashplates) or using LEADseeker (in the case of the use of image flashplates).
# [4] = molecular target: T4, IKKε (Homo sapiens, UniProt Q14164); assay: IKKε kinase test (IKKepsilon), 384-well flashplate; settings: enzymatic; 10 μM ATP; read-out: IKKe IC50 (enzymatic)
# T4 construct: 1 nM IKKε, 800 nM biotinylated IκBα(19-42) peptide
# T4 sequence (Q14164 1-716): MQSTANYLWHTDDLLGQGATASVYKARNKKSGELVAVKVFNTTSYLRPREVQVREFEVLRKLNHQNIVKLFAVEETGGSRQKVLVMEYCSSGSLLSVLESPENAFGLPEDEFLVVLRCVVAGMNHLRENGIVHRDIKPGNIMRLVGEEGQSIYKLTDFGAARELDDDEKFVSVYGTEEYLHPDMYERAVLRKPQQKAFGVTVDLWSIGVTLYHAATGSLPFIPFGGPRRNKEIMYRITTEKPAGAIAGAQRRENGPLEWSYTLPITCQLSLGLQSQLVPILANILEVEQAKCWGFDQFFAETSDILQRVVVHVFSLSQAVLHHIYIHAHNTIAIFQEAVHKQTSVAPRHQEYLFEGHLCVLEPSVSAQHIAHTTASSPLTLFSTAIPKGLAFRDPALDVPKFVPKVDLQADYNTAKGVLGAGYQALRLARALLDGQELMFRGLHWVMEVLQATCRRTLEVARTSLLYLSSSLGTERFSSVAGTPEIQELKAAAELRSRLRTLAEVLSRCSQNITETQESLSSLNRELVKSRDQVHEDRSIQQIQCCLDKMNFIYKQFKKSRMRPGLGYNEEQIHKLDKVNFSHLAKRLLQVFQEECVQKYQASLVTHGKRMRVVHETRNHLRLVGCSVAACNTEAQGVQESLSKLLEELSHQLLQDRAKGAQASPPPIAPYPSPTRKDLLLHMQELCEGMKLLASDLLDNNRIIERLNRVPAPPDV
# Description: The kinase assay is performed as 384-well flashplate assay. 1 nM IKKε, 800 nM biotinylated IκBα(19-42) peptide (biotin-C6-C6-[…] (SEQ ID NO: 2)) and 10 μM ATP (with 0.3 μCi of 33P-ATP/well) are incubated in a total volume of 50 μl (10 mM MOPS, 10 mM magnesium acetate, 0.1 mM EGTA, 1 mM dithiothreitol, 0.02% of Brij, 0.1% of BSA, 0.1% of BioStab, pH 7.5) with or without test substance at 30° C. for 120 min. The reaction is stopped using 25 μl of 200 mM EDTA solution, filtered off with suction after 30 min at room temperature, and the wells are 25 washed 3 times with 100 μl of 0.9% NaCl solution. The non-specific proportion of the kinase reaction (blank) is determined using 3 μM EMD 1126352 (BX-795). Radioactivity is measured in the Topcount. IC50 values are calculated using RS1.
SMILES,IC50 [1],IC50 [2],IC50 [3],IC50 [4]
"Cn1cc(-c2c(C(F)(F)F)cnc3[nH]c(-c4ccc(F)cc4)cc23)cn1 [A105, 2-(4-Fluorophenyl)-4-(1-methyl-1H-pyrazol-4-yl)-5-trifluoromethyl-1H-pyrrolo[2,3-b]pyridine]",0.3 to 3 µM,–,–,–
"Nc1ccc(-c2c(C(F)(F)F)cnc3[nH]c(-c4ccc(N5CCOCC5)cc4)cc23)cc1 [A100, 4-[2-(4-Morpholin-4-ylphenyl)-5-trifluoromethyl-1H-pyrrolo[2,3-b]pyridin-4-yl]phenylamine]",–,0.3 to 3 µM,–,–
"Cn1cc(-c2c(C(F)(F)F)cnc3[nH]c(-c4cccc(N5CCOCC5)c4)cc23)cn1 [A104, 4-(1-Methyl-1H-pyrazol-4-yl)-2-(3-morpholin-4-ylphenyl)-5-trifluoromethyl-1H-pyrrolo[2,3-b]-pyridine]",0.3 to 3 µM,–,–,–
"CN(c1ncccc1-c1nc2ncnc(Nc3ccc(N4CCOCC4)cc3)c2[nH]1)S(C)(=O)=O [A5, N-Methyl-N-{3-[6-(4-morpholin-4-ylphenyl-amino)-7H-purin-8-yl]pyridin-2-yl}methanesulfonamide]",–,–,3 to 50 µM,–
"Cn1cc(-c2c(C(F)(F)F)cnc3[nH]c(-c4cccc(C(=O)N5CCOCC5)c4)cc23)cn1 [A95, {3-[4-(1-Methyl-1H-pyrazol-4-yl)-5-trifluoro-methyl-1H-pyrrolo[2,3-b]pyridin-2-yl]phenyl}-morpholin-4-ylmethanone]",0.3 to 3 µM,0.3 to 3 µM,–,3 to 50 µM
"CN(c1ncccc1-c1cc2ccnc(Nc3ccc4c(c3)CCC(=O)N4)c2[nH]1)S(C)(=O)=O [A3, N-Methyl-N-{3-[7-(2-oxo-1,2,3,4-tetrahydroquinolin-6-ylamino)-1H-pyrrolo[2,3-c]pyridin-2-yl]pyridin-2-yl}methanesulfonamide]",–,–,3 to 50 µM,–
"COc1cc(N2CCOCC2)ccc1Nc1ncnc2nc(-c3cccnc3N(C)S(C)(=O)=O)[nH]c12 [A4, N-{3-[6-(2-Methoxy-4-morpholin-4-ylphenyl-amino)-7H-purin-8-yl]pyridin-2-yl}-N-methyl-methanesulfonamide]",–,–,3 to 50 µM,–
"O=c1ccc(-c2c(C(F)(F)F)cnc3[nH]c(-c4ccc(N5CCOCC5)cc4)cc23)c[nH]1 [A97, 5-[2-(4-Morpholin-4-ylphenyl)-5-trifluoromethyl-1H-pyrrolo[2,3-b]pyridin-4-yl]-1H-pyridin-2-one]",0.3 to 3 µM,0.3 to 3 µM,–,0.3 to 3 µM
"FC(F)(F)c1cnc2[nH]c(-c3ccc(N4CCOCC4)cc3)cc2c1-c1cn[nH]c1 [A102, 2-(4-Morpholin-4-ylphenyl)-4-(1H-pyrazol-4-yl)-5-trifluoromethyl-1H-pyrrolo[2,3-b]pyridine]",3 to 50 µM,–,–,–
"CN(c1ncccc1-c1nc2ncnc(Nc3cnn(C)c3)c2[nH]1)S(C)(=O)=O [A6, N-Methyl-N-{3-[6-(1-methyl-1H-pyrazol-4-yl-amino)-7H-purin-8-yl]pyridin-2-yl}methanesulfonamide]",–,–,3 to 50 µM,–
"CN(c1ncccc1-c1nc2ccnc(Nc3ccc4c(c3)CCC(=O)N4)c2[nH]1)S(C)(=O)=O [A7, N-Methyl-N-{3-[4-(2-oxo-1,2,3,4-tetra-hydroquinolin-6-ylamino)-3H-imidazo[4,5-c]-pyridin-2-yl]pyridin-2-yl}methanesulfonamide]",–,–,3 to 50 µM,–
"CN(c1ncccc1-c1cc2ccnc(Nc3ccc(N4CCOCC4)cc3)c2[nH]1)S(C)(=O)=O [A2, N-Methyl-N-{3-[7-(4-morpholin-4-ylphenyl-amino)-1H-pyrrolo[2,3-c]pyridin-2-yl]pyridin-2-yl}methanesulfonamide]",–,–,3 to 50 µM,–
"Cn1cc(-c2c(C(F)(F)F)cnc3[nH]c(-c4ccc(C(=O)N5CCOCC5)cc4)cc23)cn1 [A96, {4-[4-(1-Methyl-1H-pyrazol-4-yl)-5-trifluoro-methyl-1H-pyrrolo[2,3-b]pyridin-2-yl]phenyl}-morpholin-4-ylmethanone]",< 0.3 µM,< 0.3 µM,–,0.3 to 3 µM
"CN(c1ncccc1-c1cc2ccnc(Nc3ccc4c(c3)CC(=O)N4)c2[nH]1)S(C)(=O)=O [A1, N-Methyl-N-{3-[7-(2-oxo-2,3-dihydro-1H-indol-5-ylamino)-1H-pyrrolo-[2,3-c]pyridin-2-yl]-pyridin-2-yl}methanesulfonamide]",–,–,3 to 50 µM,–
